Data as given in US8349801B2, “Peptide ligands for G-protein coupled receptors” (priority 2006, dated 2013).
No end group written: not given here.

What was measured:
Mas receptor = target: T1, Mas receptor (Homo sapiens, UniProt P04201); experiment: Calcium flux in CHO-K1 cells co-transfected with Mas receptor and Gα16; assay type: cell-based; details: dose response
T1 construct: expressed in transfected cells; host or cells: CHO-K1 (ATCC-CCL-61), transient co-transfection
T1 sequence (P04201 1-325): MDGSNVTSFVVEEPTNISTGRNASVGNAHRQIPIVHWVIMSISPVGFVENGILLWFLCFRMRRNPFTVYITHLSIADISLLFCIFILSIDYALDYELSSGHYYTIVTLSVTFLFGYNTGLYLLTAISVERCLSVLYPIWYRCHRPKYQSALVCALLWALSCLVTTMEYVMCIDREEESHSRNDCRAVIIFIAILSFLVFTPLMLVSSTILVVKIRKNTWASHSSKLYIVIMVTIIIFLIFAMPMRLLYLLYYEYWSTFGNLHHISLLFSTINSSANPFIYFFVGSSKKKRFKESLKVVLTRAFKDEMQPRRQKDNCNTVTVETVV
Description: The assay was carried out in CHO cells were transiently transfected with the GPCR of choice, by utilizing the promiscuous Gα16 to divert signaling to the Gq pathway, thus enabling readout of GPCR activation by testing for Calcium flux as described by Liu et al 2003 (Biomol Screen 8, 39-49).
All the peptides thus obtained were tested for their ability to change calcium flux in CHO—K1 cells (ATCC-CCL-61) transiently co-transfected with an expression vector containing the GPCR of choice and expression vector containing the Gα16 encoding cDNA. Expression constructs containing cDNA clones for MrgX1, MrgX2, Mas or FPRL1 were commercially obtained in one of the following expression vectors: pcDNA3.1, pCMV6, or MO2.
Transient transfections were performed using CHO—K1 cells as host cells. Cells (12 million) were plated into T75 flasks on the day preceding transfection. Cells were transfected with the appropriate GPCR expression vector and with a vector expressing Gα16 using a lipid-based reagent, MTI, according to the manufacturer's recommendation. Cells were transfected for 5 hours, then re-plated into 96-well dishes (60,000 cells per well) and grown overnight.
On the day of the experiment, cells were loaded with Fluo4-NW (Invitrogen) according to the manufacturer's recommendation. Plates were loaded into a FlexStation™ (Molecular Devices) plate reader and fluorescence was monitored. Seventeen seconds following initiation of reading, cells were stimulated with the indicated agonist/compound at final concentration of 1 μM. Each 96 well plate contained cells transfected with one GPCR expression vector and each of the examined peptides was tested in triplicate.
We defined a hit as a peptide which elicited a clear and distinct increase in intracellular calcium that is clearly visible and statistically significant upon examination of the calcium trace for at least two repeats. The criterion for statistical significance was a p-value lower than 0.001 in a t-test comparing the levels of calcium before and after peptide addition.
Based on dose response experiments, EC50 best fit values were calculated by non-linear regression of sigmoidal dose-response curves, using Prism version 4 (GraphPad Software Inc., San Diego, Calif.). The formulae for the sigmoidal dose-response curves was defined as Y=Bottom+(Top−Bottom)/(1+10^ (LogEC50−X)*HillSlope))
The ability of Peptides to change calcium flux was examined in CHO—K1 cells co-transfected with Mas receptor and Gα16.

[1] = test system: aortic rings from Wistar rat; experiment: Vasorelaxant activity in phenylephrine pre-contracted aortic rings
From the text: Male Wistar rats of the age of 13-14 weeks (body weight: 250 to 300 g) were used. The rats were exposed to light-dark cycle of 12 hs (day—06:00 to 18:00; night—18:00 to 06:00) controlled by timer. Rats were killed by decapitation and exsanguination and tissues were rapidly removed.
Rings (3-4 mm) from the descending thoracic aorta, free of adipose and connective tissue, were set up in gassed (95% O2 and 5% CO2) Krebs-Henseleit solution (mmol/L): NaCl 110.8, KCl 5.9, NaHCO3 25.0, MgSO4 1.07, CaCl2 2.49, NaH2PO4 2.33 and glucose 11.51, at 37° C., under a tension of 1.0 g, for 1 hour to equilibrate. The presence of functional endothelium was assessed by the ability of Acetylcholine (1 μM) to induce more than 70% relaxation of vessels pre-contracted with phenylephrine (0.3 μM) (Lemos et al., 2005). When necessary, the endothelium was removed by rubbing the intimal surface with a wooden stick. Mechanical activity, recorded isometrically by a force transducer (Panlab, model number TR1210, Spain), was fed to an amplifier-recorder (Powerlab 4/20, ADInstruments, Inc.) and to a personal computer equipped with an analogue-to-digital converter board (AD16JR; World Precision Instruments, Inc.), using CVMS data acquisition/recording software (World Precision Instruments, Inc.).
The vasorelaxant activity of peptides —P61_S (SEQ ID NO:10), P61 (SEQ ID NO.9)-dimer (P61_D), P33_V (SEQ ID NO:7) and P33 (SEQ ID NO:6)-dimer (P33_D) were measured in vessels (N=5-8) with or without functional endothelium pre-contracted to the same tension level (approximately 1.5 g of tension) induced by submaximal concentrations of phenylephrine (0.01 μM). For comparison, the effect of Ang-(1-7) was also tested (N=4)
P61_S (SEQ ID NO:10), P61 (SEQ ID NO9)-dimer (P61_D), P33_V (SEQ ID NO:7) or P33 (SEQ ID NO:6)-dimer (P33_D) were added in increasing cumulative concentrations (0.0001 to 1 μM) once the response to phenylephrine had stabilized (FIG. 28). In order to verify the participation of endothelium-derived products in the relaxant effect of peptides, experiments were performed in the presence of 100 μM N′-Nitro-L-Arginine Methyl Ester-[L-NAME]—a nonselective inhibitor of nitric oxide synthase. In experiments performed in the presence of L-NAME, vessels were pre-contracted with 0.03 μM of phenylephrine, to achieve the same tension level as the others. L-NAME was added to the bath 20 min prior to the addition of phenylephrine.
Results are presented as mean±SEM. Two-way analysis of variance (ANOVA) with Bonferroni multiple comparison post-test was used to compare concentration response curves obtained in aortic rings. The vasodilator effect of P61_S (SEQ ID NO:10), P61 (SEQ ID N09)-dimer (P61_D), P33_V (SEQ ID NO:7), P33 (SEQ ID NO:6)-dimer (P33_D) and Ang-(1-7) were expressed as percentage decrease in maximal contraction induced by phenylephrine. All statistical analyses were considered significant when p<0.05.

With “FLGYCIYLNRKRRGDPAFKRRLRD (also: dimer via cysteine; listed as Homo sapiens) [Peptide P61_dimer]” the “ability to induce calcium flux, P61-related peptides compared” value (Mas receptor) was “more potent than the monomeric P61 peptides”, the “vasodilator effect in the presence of L-NAME” value ([1]; 100 μM L-NAME, NO synthase inhibitor) was “markedly inhibited” and the “vasodilator effect in the absence of functional endothelium” value ([1]; endothelium-denuded vessels) was “abolished”. The “Maximal values for the relaxant effect (Emax)” value ([1]; vessels with endothelium, 0.0001 to 1 μM cumulative, mean±SEM) was 20.45±5.11%.
